In data set [1] the target is T1, GnRH-R (membranes of human pituitary) (Homo sapiens, UniProt P30968).
T1 construct: GnRH-Rs expressed on human pituitary and human prostate cancer cells; from tissue; host or cells: normal human pituitary (anterior lobe), autopsy; membrane homogenate
T1 sequence (P30968 1-328): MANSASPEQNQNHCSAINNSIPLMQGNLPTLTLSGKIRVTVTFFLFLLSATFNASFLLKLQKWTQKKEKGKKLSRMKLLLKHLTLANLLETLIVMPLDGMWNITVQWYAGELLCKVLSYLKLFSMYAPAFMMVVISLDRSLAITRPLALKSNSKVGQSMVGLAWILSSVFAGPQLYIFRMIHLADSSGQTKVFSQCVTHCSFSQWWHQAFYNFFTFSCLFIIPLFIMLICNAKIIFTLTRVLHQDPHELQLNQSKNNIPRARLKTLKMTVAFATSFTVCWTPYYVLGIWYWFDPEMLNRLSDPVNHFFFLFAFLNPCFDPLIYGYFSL
The experiment in a line: Radioligand competition assay, displacement of [125I]-GnRH-I-[6D-Trp] (triptorelin), human pituitary membranes. To be noted: for GnRH-R binding of the radiotracer affected: at concentrations up to 1 µM, unrelated peptides; for displacement of radio-labelled triptorelin from GnRH-Rs: human pituitary and human prostate cancer tissues, GnRH unrelated peptides. It counts as binding. The method, then: (§1) A ligand competition assay with [^125I]-GnRH-I-[^6D-Trp] as radioligand was performed to examine the binding affinity of the GnRH-III-drug conjugates to GnRH-Rs expressed on human pituitary and human prostate cancer cells. Human prostate cancer cells were derived from patients at the time of initial surgical treatment, while tissue samples from normal human pituitary (anterior lobe) were obtained by autopsy. All subjects were informed and gave their consent for inclusion before they participated in the study. The preparation of the cell membranes was carried out according to the literature. The chloramines-T method was used to prepare radioiodinated GnRH-I agonist triptorelin which was purified by RP-HPLC [10, 38, 39, 47]. The displacement of [^125I]-GnRH-I-[^6D-Trp] was studied in an in vitro ligand competition assay to determine the binding affinities of the non-radio-labeled GnRH-III bioconjugates to GnRH-RI [10, 11, 38, 39]. Membrane homogenates containing […] protein were incubated in duplicate or triplicate with 60–80,000 cpm [^125I]-GnRH-I-[^6D-Trp] and rising concentration (1 pM—1 µM) of nonradioactive bioconjugates as competitors in a total volume of […] binding buffer. Protein concentration was determined by the method of Bradford using a Bio-Rad protein assay kit (Bio-Rad Laboratories, Hercules, CA, USA). The LIGAND-PC computerized curve-fitting program of Munson and Rodbard was used to determine the receptor binding characteristics and IC50 values.

Data set [2] has as its system A2780 human ovarian cancer cells. The experiment in a line: cells. It counts as cell-based. The method, then: (§2) For cultivation of A2780 human ovarian and Panc-1 human pancreatic cancer cells, RPMI-1640 medium with 10% FBS, L-glutamine and 1% Penicillin-Streptomycin were used. Cells were cultured in appropriate plastic flasks at 37 °C (humidified atmosphere, 5% CO2/95% air).
(§3) A set-up of 96-well plates was used to study the in vitro antiproliferative activity. Therefore, 5 × 10^3 cells in 100 µL complete medium were seeded to each well. After 24 h, complete medium was removed and cells were treated with 200 µL bioconjugate solution in serum-free medium (concentration range 0.0032–50 µM, control wells were treated with serum-free medium). Medium was taken out after 6 h treatment (PTX conjugates) or 24 h (Dau conjugates), replaced by complete medium and incubation was continued. To determine the cell viability, medium was removed after 72 h and 100 µL resazurin solution [45] (10% Tox-8 in FBS-free medium) was added to each well, followed by additional incubation of 2–3 h. A Tecan infinite 200 pro microplate reader (Tecan Group Ltd., Zürich, Switzerland) was used for fluorescence detection (λEx = 560 and λEm = 590 nm). Experiments were performed at least twice, using three parallels per concentration. The cell viability (and IC50 values) was calculated with GraphPad Prism using a nonlinear regression (sigmoidal dose-response).

The test system of data set [3] is Panc-1 human pancreatic cancer cells. The experiment in a line: cells. In kind it is cell-based. To be noted: for activity on Panc-1 cells lower than on A2780: ratio Panc-1 vs A2780. The method, then:
as §2, §3

Data set [4] can be described thus: Degradation of drug conjugates in presence of rat liver lysosomal homogenate (LC-MS). In kind it is in vitro ADME. To be noted: pH 5, 37 °C. The method, then: The preparation of the rat liver lysosomal homogenate was carried out as recently reported. A Qubit Protein Assay Kit (Thermo Fischer Scientific, Waltham, MA, USA) was used to examine the concentration of the lysosomal proteins.
Initially, a stock solution of the GnRH-III-Dau conjugates in water (5 µg/µL) was prepared. For the degradation reaction, the conjugates and the lysosomal homogenate were diluted together in 0.2 M NaOAc buffer (pH 5) to a concentration of 0.25 µg/µL each. These mixtures were kept at 37 °C and at distinct time points (5 min, 1 h, 2 h, 4 h, 8 h and 24 h), 15 µL of each sample were quenched with 2 µL acetic acid and analyzed by LC-MS (System I).
The GnRH-III-PTX conjugates were dissolved in DMSO to a concentration of 10 mM. The reaction was carried out in 0.2 M NaOAc buffer (pH 5) with 10 µM conjugate and 0.025 µg/mL lysosomal homogenate. The reaction mixtures were incubated at 37 °C and aliquots of 60 μL were taken at 5 min, 1 h, 2 h, 4 h, 8 h and 24 h and quenched with 5 μL of acetic acid. The analysis of the samples was performed by LC–MS (System-II).

Data set [5] has as its target T2, GnRH-R (membranes of human prostate cancer specimens) (Homo sapiens, UniProt P30968).
T2 construct: GnRH-Rs expressed on human pituitary and human prostate cancer cells; from tissue; host or cells: human prostate cancer specimens from patients (surgery); membrane homogenate
T2 sequence (P30968 1-328): T1 sequence (P30968 1-328)
The experiment in a line: Radioligand competition assay, displacement of [125I]-GnRH-I-[6D-Trp] (triptorelin), human prostate cancer membranes. To be noted: mean ± SE of two to three determinations, read-out: IC50 Prostate Cancer, competitive inhibition of [125I][6D-Trp]-GnRH-I binding. The method, then:
as §1

[6] abbreviates: A2780 cells, treatment 24 h (Dau conjugates) or 6 h (PTX compounds), viability at 72 h, mean ± SE of two to three determinations, read-out: A2780 IC50.
Where [7] appears, read: Panc-1 cells, treatment 24 h (Dau conjugates) or 6 h (PTX compounds), viability at 72 h, mean ± SE of two to three determinations, read-out: Panc-1 IC50.

Read-outs that look alike come from different tables or passages of the source.

On to bombesin [reference compound], for which, in data set [1], the “GnRH-R binding of the radiotracer affected” value is on record as “unable to affect” and the “displacement of radio-labelled triptorelin from GnRH-Rs” value is “not able to displace”.

As to `COc1cccc2c1C(=O)c1c(O)c3c(c(O)c1C2=O)C[C@@](O)(C(C)=O)C[C@@H]3O[C@H]1C[C@H](N)[C@H](O)[C@H](C)O1` [Dau, daunorubicin, reference compound], the IC50 was determined as 210 ± 10 nM in data set [2] (Homo sapiens, A2780, read-out: A2780 IC50) and 2430 ± 580 nM in data set [3] (Homo sapiens, PANC-1, read-out: Panc-1 IC50). The “activity on Panc-1 cells lower than on A2780” value in data set [3] was “approximately 10 times”.

Consider somatostatin [reference compound], for which, in data set [1], the “GnRH-R binding of the radiotracer affected” value is on record as “unable to affect” and the “displacement of radio-labelled triptorelin from GnRH-Rs” value is listed as “not able to displace”.

Turning to `CCCC(=O)NCCCC[C@H](NC(=O)[C@H]1Cc2ccccc2CN1C(=O)[C@@H]1CCC(=O)N1)C(=O)N[C@@H](Cc1c[nH]cn1)C(=O)N[C@@H](CC(=O)O)C(=O)N[C@@H](Cc1c[nH]c2ccccc12)C(=O)N[C@@H](CCCCNC(=O)CCCC(=O)N[C@H](C(=O)N[C@@H](CCCNC(N)=O)C(=O)Nc1ccc(COC(=O)N[C@H]2C[C@H](O[C@H]3C[C@](O)(C(C)=O)Cc4c(O)c5c(c(O)c43)C(=O)c3c(OC)cccc3C5=O)O[C@@H](C)[C@H]2O)cc1)C(C)C)C(=O)N1CCC[C@H]1C(=O)NCC(N)=O` [compound 11, GnRH-III-[2ΔHis-3D-Tic,8Lys(glutaryl-Val-Cit-PABC-Dau)]], in data set [3], the “activity on Panc-1 cells lower than on A2780” value is given as “more than 20 times”. The “receptor binding affinity of 11 relative to corresponding Val-Ala conjugate 13” value in data set [1] (Val-Cit vs Val-Ala) was “twice as high”.

Consider `CCCC(=O)NCCCC[C@H](NC(=O)[C@H](Cc1c[nH]c2ccccc12)NC(=O)[C@H](Cc1c[nH]cn1)NC(=O)[C@@H]1CCC(=O)N1)C(=O)N[C@@H](Cc1c[nH]cn1)C(=O)N[C@@H](CC(=O)O)C(=O)N[C@@H](Cc1c[nH]c2ccccc12)C(=O)N[C@@H](CCCCNC(=O)CCCC(=O)N[C@H](C(=O)N[C@@H](C)C(=O)Nc1ccc(COC(=O)N(C)CCN(C)C(=O)O[C@@H](C(=O)O[C@H]2C[C@@]3(O)[C@@H](OC(=O)c4ccccc4)[C@@H]4[C@]5(OC(C)=O)CO[C@@H]5C[C@H](O)[C@@]4(C)C(=O)[C@H](OC(C)=O)C(=C2C)C3(C)C)[C@@H](NC(=O)c2ccccc2)c2ccccc2)cc1)C(C)C)C(=O)N1CCC[C@H]1C(=O)NCC(N)=O` [compound 16], for which the IC50 came to 660 ± 180 nM in data set [2] (setting [6]), 4890 ± 1080 nM in data set [3] (setting [7]), 9.86 ± 0.82 nM in data set [1] and 8.47 ± 1.06 nM in data set [5]. The “detection of the diamine-PTX fragment” value in data set [4] (after 5 min of incubation) is “could be already detected”. The “release of the free PTX” value in data set [4] (within 24 h) is “could not be detected”.

In the case of `CC(=O)O[C@H]1C(=O)[C@@]2(C)[C@H]([C@H](OC(=O)c3ccccc3)[C@]3(O)C[C@H](OC(=O)[C@H](O)[C@@H](NC(=O)c4ccccc4)c4ccccc4)C(C)=C1C3(C)C)[C@]1(OC(C)=O)CO[C@@H]1C[C@@H]2O` [PTX, paclitaxel, reference compound], the IC50 stood at 20 ± 1 nM in data set [2] (Homo sapiens, A2780 cells, treatment 24 h (Dau conjugates) or 6 h (PTX compounds), viability at 72 h, mean ± SE of two to three determinations, read-out: A2780 IC50) and 170 ± 10 nM in data set [3] (Homo sapiens, Panc-1 cells, treatment 24 h (Dau conjugates) or 6 h (PTX compounds), viability at 72 h, mean ± SE of two to three determinations, read-out: Panc-1 IC50).

As for `CCCC(=O)NCCCC[C@H](NC(=O)[C@H]1Cc2ccccc2CN1C(=O)[C@@H]1CCC(=O)N1)C(=O)N[C@@H](Cc1c[nH]cn1)C(=O)N[C@@H](CC(=O)O)C(=O)N[C@@H](Cc1c[nH]c2ccccc12)C(=O)N[C@@H](CCCCNC(=O)CCCC(=O)N[C@H](C(=O)N[C@@H](C)C(=O)Nc1ccc(COC(=O)N[C@H]2C[C@H](O[C@H]3C[C@](O)(C(C)=O)Cc4c(O)c5c(c(O)c43)C(=O)c3c(OC)cccc3C5=O)O[C@@H](C)[C@H]2O)cc1)C(C)C)C(=O)N1CCC[C@H]1C(=O)NCC(N)=O` [compound 13], the “activity on Panc-1 cells lower than on A2780” value in data set [3] is reported as “more than 20 times”.

Take `CCCC(=O)NCCCC[C@H](NC(=O)[C@H](Cc1c[nH]c2ccccc12)NC(=O)[C@H](Cc1c[nH]cn1)NC(=O)[C@@H]1CCC(=O)N1)C(=O)N[C@@H](Cc1c[nH]cn1)C(=O)N[C@@H](CC(=O)O)C(=O)N[C@@H](Cc1c[nH]c2ccccc12)C(=O)N[C@@H](CCCCN)C(=O)N1CCC[C@H]1C(=O)NCC(N)=O` [Peptide I, GnRH-III-[^4Lys(Bu)]]: the 50% inhibitory concentration (IC50) in data set [1] (human pituitary membranes, mean ± SE of two to three determinations, read-out: IC50 Pituitary, competitive inhibition of [125I][6D-Trp]-GnRH-I binding) amounted to 2.72 ± 0.95 nM; in data set [5] it was 3.11 ± 0.76 nM.

On to `CCCC(=O)NCCCC[C@H](NC(=O)[C@H](Cc1c[nH]c2ccccc12)NC(=O)[C@H](Cc1c[nH]cn1)NC(=O)[C@@H]1CCC(=O)N1)C(=O)N[C@@H](Cc1c[nH]cn1)C(=O)N[C@@H](CC(=O)O)C(=O)N[C@@H](Cc1c[nH]c2ccccc12)C(=O)N[C@@H](CCCCNC(=O)CCCC(=O)N(C)CCN(C)C(=O)O[C@@H](C(=O)O[C@H]1C[C@@]2(O)[C@@H](OC(=O)c3ccccc3)[C@@H]3[C@]4(OC(C)=O)CO[C@@H]4C[C@H](O)[C@@]3(C)C(=O)[C@H](OC(C)=O)C(=C1C)C2(C)C)[C@@H](NC(=O)c1ccccc1)c1ccccc1)C(=O)N1CCC[C@H]1C(=O)NCC(N)=O` [compound 25, GnRH-III-[2His-3Trp,8Lys(glutaryl-diamine-PTX)]], for which the IC50 in data set [2] (setting [6]) was 41500 ± 9830 nM; in data set [3] (setting [7]), over 100000 nM. Besides, in data set [4] (even after 24 h of incubation), the “detection of the diamine-PTX fragment” value was “could not be detected”.
